# US11376234B2, “Ammonia metabolism promoter” (Kao Corporation, priority 2018, dated 2022)
# Marks after values point to notes of the source that are not given here.
# Experiments:
# primary hepatocytes = test: Amount of change in ammonia in culture medium of primary hepatocytes (Example 2); assay type: cell-based, mouse; details: for Ammonia change amount in culture medium, Increasing rate relative to control (%): 5 mM ammonium chloride, 24 hours, control = 100; for amount of change in ammonia in the culture medium relative to the control (in words): Dunnett's test, n=4
# Method: For cells, a hepatocyte culture kit (derived from a 10-week-old male Balb/c mouse, 24 wells, 1×10^5 cells/well, Cosmo Bio) was used. A final concentration of 5 mM of ammonium chloride (015-02991, Wako) and 1.4 μM or 4.2 μM of the following catechins (EGC, Cg or ECg) were added to a medium containing high glucose DMEM (31053028, Gibco) containing GlutaMAX (35050-061, Gibco), penicillin/streptomycin (168-23191, Wako) and ascorbic acid (014-04801, Wako), and the cells were cultured therein: EGC (NH020203, Nagara Science Co., Ltd.); Cg (NH 021302, Nagara Science Co., Ltd.); and ECg (NH 020302, Nagara Science Co., Ltd.). Cells cultured in a medium without any added catechins were used as a control. The culture supernatant was collected 24 hours later, and the ammonia contained therein was quantitatively determined using an ammonia assay kit (Abcam). The decrement in the ammonia amount in the culture medium 24 hour after addition of ammonium chloride and catechins relative to the ammonia amount at the time of addition was defined as an amount of change in ammonia in the culture medium.
# Each value in Table 1 represents the increasing rate of the amount of change in ammonia relative to that of the control. The statistical processing was performed by using multigroup comparison by Dunnett's test for n=4 per group (**: p <0.001, *: p<0.05).
# [1] = test system: primary cultured hepatocytes; test: Urea production of hepatocytes with citrulline and arginine (Reference Example); assay type: cell-based; details: 5 mM ammonium chloride, 24 hours; Arg+Cit 0.5 mM each, Cit 1 mM; vs control
# Method: Cells were recovered from the liver of each mouse and dead cells were removed, in the same procedure as in Example 1. Thereafter, cells were suspended in a DMEM medium, seeded at 10^5 cells/well in a 24-well plate, and cultured.
# The cells 24 hours after seeding were washed twice with PBS. Thereafter, the medium was replaced with an FBS, arginine, leucine free DMEM medium (D9443, Sigma), and 5 mM of ammonium chloride (control), ammonium chloride+0.5 mM of L-arginine+0.5 mM of L-citrulline (Arg+Cit), or ammonium chloride+1 mM of L-citrulline (Cit) was added thereto. The culture supernatant was collected 24 hours later, and the urea contained therein was quantitatively determined with QuantiChrom Urea Assay Kit (BioAssay Systems).
Compound,"Ammonia change amount in culture medium, Increasing rate relative to control (%) (primary hepatocytes; 1.4 μM)","Ammonia change amount in culture medium, Increasing rate relative to control (%) (primary hepatocytes; 4.2 μM)",amount of change in ammonia in the culture medium relative to the control (in words) (primary hepatocytes; 4.2 μM),amount of urea production by hepatocytes [1]
"Oc1cc(O)c2c(c1)O[C@H](c1cc(O)c(O)c(O)c1)[C@H](O)C2 [EGC, epigallocatechin]",122,186** %,significantly increases,–
"NC(=O)NCCC[C@H](N)C(=O)O [Cit, L-citrulline]",–,–,–,significantly increased
"O=C(O[C@@H]1Cc2c(O)cc(O)cc2O[C@@H]1c1ccc(O)c(O)c1)c1cc(O)c(O)c(O)c1 [ECg, epicatechin gallate]",–,126%,–,–
catechin gallate [Cg],–,174* %,significantly increases,–
